According to patent publication US20090054392A1, “NAPHTHYLPYRIMIDINE, NAPHTHYLPYRAZINE AND NAPHTHYLPYRIDAZINE ANALOGS AND THEIR USE AS AGONISTS OF THE WNT-BETA-CATENIN CELLULAR MESSAGING SYSTEM” (Wyeth, priority 2007, published 2009):
pEC50: −log10 of the molar value.

System: Dkk1-LRP5-TCF-Luciferase
Test: Functional Dkk1-LRP5-TCF-Luciferase Assay in U2OS Cells
Details: for fold induction at 2 µM / fold induction at 20 µM / pEC50: Homo sapiens, U2OS; for fold induction at 2 µM: read-out: B = TCF ACTIVITY/DMSO CONTROL Fold induction @ 2.0 uM, 2.0 uM compound; for fold induction at 20 µM: read-out: C = TCF ACTIVITY/DMSO CONTROL Fold induction @ 20.0 uM, 20.0 uM compound; for A = MAX FOLD Induction/DMSO CONTROL: maximum fold induction over DMSO control

A = MAX FOLD Induction/DMSO CONTROL [fold]	pEC50	Structure (SMILES)	fold induction at 2 µM	fold induction at 20 µM
1.350		CC(=O)NC1CCCN(c2nccc(-c3ccc4ccccc4c3)n2)CC1 (stereo not drawn) [N-{1-[4-(2-naphthyl)pyrimidin-2-yl]azepan-4-yl}acetamide]	1.26	2.91
		O=C(NC1CCCN(c2nccc(-c3ccc4ccccc4c3)n2)CC1)c1ccccc1 (stereo not drawn) [N-{1-[4-(2-naphthyl)pyrimidin-2-yl]azepan-4-yl}benzamide]	1.23	1.07
1.120		CS(=O)(=O)NC1CCCN(c2nccc(-c3ccc4ccccc4c3)n2)CC1 (stereo not drawn) [N-{1-[4-(2-naphthyl)pyrimidin-2-yl]azepan-4-yl}methanesulfonamide]	2.04	2.21
1.500	4.69	NC(=O)NC1CCCN(c2nccc(-c3ccc4ccccc4c3)n2)CC1 (stereo not drawn) [N-{1-[4-(2-naphthyl)pyrimidin-2-yl]azepan-4-yl}urea]	1.62	2.89
1.610		CC(=O)N[C@@H]1CCN(c2nccc(-c3ccc4ccccc4c3)n2)C1 [N-{(3R)-1-[4-(2-naphthyl)pyrimidin-2-yl]pyrrolidin-3-yl}acetamide]	1.62	0.2
		N=C(N)N[C@@H]1CCN(c2nccc(-c3ccc4ccccc4c3)n2)C1 [N-{(3R)-1-[4-(2-naphthyl)pyrimidin-2-yl]pyrrolidin-3-yl}guanidine]	1.63	0.65
		CS(=O)(=O)N[C@@H]1CCN(c2nccc(-c3ccc4ccccc4c3)n2)C1 [N-{(3R)-1-[4-(2-naphthyl)pyrimidin-2-yl]pyrrolidin-3-yl}methanesulfonamide]	1.26	0.82
		O=C(N[C@@H]1CCN(c2nccc(-c3ccc4ccccc4c3)n2)C1)N1CCOCC1 [N-{(3R)-1-[4-(2-naphthyl)pyrimidin-2-yl]pyrrolidin-3-yl}morpholine-4-carboxamide]	1.91	
		O=C(N[C@@H]1CCN(c2nccc(-c3ccc4ccccc4c3)n2)C1)N1CCCC1 [N-{(3R)-1-[4-(2-naphthyl)pyrimidin-2-yl]pyrrolidin-3-yl}pyrrolidine-1-carboxamide]	1.41	0.27
1.550	5.37	NC(=O)N[C@@H]1CCN(c2nccc(-c3ccc4ccccc4c3)n2)C1 [N-{(3R)-1-[4-(2-naphthyl)pyrimidin-2-yl]pyrrolidin-3-yl}urea]	2.09	1.63
		Cc1ccc(S(=O)(=O)N2CC[C@@H](Nc3nccc(-c4ccc5ccccc5c4)n3)C2)cc1 [N-{(3R)-1-[(4-methylphenyl)sulfonyl]pyrrolidin-3-yl}-4-(2-naphthyl)pyrimidin-2-amine]		1.58
		CC(=O)N(CC(F)(F)F)[C@H]1CCN(c2nccc(-c3ccc4ccccc4c3)n2)C1 [N-{(3S)-1-[4-(2-naphthyl)pyrimidin-2-yl]pyrrolidin-3-yl}-N-(2,2,2-trifluoroethyl)acetamide]	1.23	
4.375	5.16	CC(=O)N[C@H]1CCN(c2nccc(-c3ccc4ccccc4c3)n2)C1 [N-{(3S)-1-[4-(2-naphthyl)pyrimidin-2-yl]pyrrolidin-3-yl}acetamide]	1.02	1.5
		O=C(N[C@H]1CCN(c2nccc(-c3ccc4ccccc4c3)n2)C1)c1ccccc1 [N-{(3S)-1-[4-(2-naphthyl)pyrimidin-2-yl]pyrrolidin-3-yl}benzamide]	1.13	0.64
1.420	4.86	CS(=O)(=O)N[C@H]1CCN(c2nccc(-c3ccc4ccccc4c3)n2)C1 [N-{(3S)-1-[4-(2-naphthyl)pyrimidin-2-yl]pyrrolidin-3-yl}methanesulfonamide]	0.68	1.56
		O=C(N[C@H]1CCN(c2nccc(-c3ccc4ccccc4c3)n2)C1)N1CCOCC1 [N-{(3S)-1-[4-(2-naphthyl)pyrimidin-2-yl]pyrrolidin-3-yl}morpholine-4-carboxamide]	0.93	1.72
		O=C(N[C@H]1CCN(c2nccc(-c3ccc4ccccc4c3)n2)C1)N1CCCC1 [N-{(3S)-1-[4-(2-naphthyl)pyrimidin-2-yl]pyrrolidin-3-yl}pyrrolidine-1-carboxamide]	1.89	
		NC(=O)N[C@H]1CCN(c2nccc(-c3ccc4ccccc4c3)n2)C1 [N-{(3S)-1-[4-(2-naphthyl)pyrimidin-2-yl]pyrrolidin-3-yl}urea]		1.47
		Cc1ccc(S(=O)(=O)N2CC[C@H](Nc3nccc(-c4ccc5ccccc5c4)n3)C2)cc1 [N-{(3S)-1-[(4-methylphenyl)sulfonyl]pyrrolidin-3-yl}-4-(2-naphthyl)pyrimidin-2-amine]	1.22	1.01

A = MAX FOLD Induction/DMSO CONTROL [fold]	pEC50	Structure (SMILES)	fold induction at 2 µM	fold induction at 20 µM
		CS(=O)(=O)N1CC(CNc2nccc(-c3ccc4ccccc4c3)n2)C1 [N-{[1-(methylsulfonyl)azetidin-3-yl]methyl}-4-(2-naphthyl)pyrimidin-2-amine]		1.52
		CS(=O)(=O)N1CCC(CNc2nccc(-c3ccc4ccccc4c3)n2)CC1 [N-{[1-(methylsulfonyl)piperidin-4-yl]methyl}-4-(2-naphthyl)pyrimidin-2-amine]	1.54	1.35
		O=C(NCCC1CCN(c2nccc(-c3ccc4ccccc4c3)n2)CC1)OCc1ccccc1 [benzyl (2-{1-[4-(2-naphthyl)pyrimidin-2-yl]piperidin-4-yl}ethyl)carbamate]	0.86	1.49
		CC(C)(C)OC(=O)/N=C(/NCC1CCN(c2nccc(-c3ccc4ccccc4c3)n2)CC1)NC(=O)OC(C)(C)C [di-tert-butyl {(Z)-[({1-[4-(2-naphthyl)pyrimidin-2-yl]piperidin-4-yl}methyl)amino]methylylidene}biscarbamate]	0.94	1.35
		CCOC(=O)N(CCN1CCN(c2nccc(-c3ccc4ccccc4c3)n2)CC1)C(=O)OCC [diethyl (2-{4-[4-(2-naphthyl)pyrimidin-2-yl]piperazin-1-yl}ethyl)imidodicarbonate]	1.72	
1.950		CCOC(=O)C1CCN(c2nccc(-c3ccc4ccccc4c3)n2)CC1 [ethyl 1-[4-(2-naphthyl)pyrimidin-2-yl]piperidine-4-carboxylate]	1.64	1.91
1.790	4.52	CCOC(=O)N1CCCN(c2nccc(-c3ccc4ccccc4c3)n2)CC1 [ethyl 4-[4-(2-naphthyl)pyrimidin-2-yl]-1,4-diazepane-1-carboxylate]		2.49
		CCOC(=O)N1CC[C@@H](Nc2nccc(-c3ccc4ccccc4c3)n2)C1 [ethyl (3R)-3-{[4-(2-naphthyl)pyrimidin-2-yl]amino}pyrrolidine-1-carboxylate]		1.3
		CCOC(=O)N1CC[C@H](Nc2nccc(-c3ccc4ccccc4c3)n2)C1 [ethyl (3S)-3-{[4-(2-naphthyl)pyrimidin-2-yl]amino}pyrrolidine-1-carboxylate]	1.28	1.54
		CCOC(=O)CC1CCN(c2nccc(-c3ccc4ccccc4c3)n2)CC1 [ethyl {1-[4-(2-naphthyl)pyrimidin-2-yl]piperidin-4-yl}acetate]	1.26	1.06
		CCOC(=O)N[C@@H]1CCN(c2nccc(-c3ccc4ccccc4c3)n2)C1 [ethyl {(3R)-1-[4-(2-naphthyl)pyrimidin-2-yl]pyrrolidin-3-yl}carbamate]	1.21	0.69
		CCOC(=O)N[C@H]1CCN(c2nccc(-c3ccc4ccccc4c3)n2)C1 [ethyl {(3S)-1-[4-(2-naphthyl)pyrimidin-2-yl]pyrrolidin-3-yl}carbamate]	1.02	1.94
		COC(=O)C1CCN(c2nccc(-c3ccc4ccccc4c3)n2)CC1 [methyl 1-[4-(2-naphthyl)pyrimidin-2-yl]piperidine-4-carboxylate]		1.39
1.930	4.52	COC(=O)N1CCCN(c2nccc(-c3ccc4ccccc4c3)n2)CC1 [methyl 4-[4-(2-naphthyl)pyrimidin-2-yl]-1,4-diazepane-1-carboxylate]		1.88
		COC(=O)N1CCC(N(C)c2nccc(-c3ccc4ccccc4c3)n2)CC1 [methyl 4-{methyl[4-(2-naphthyl)pyrimidin-2-yl]amino}piperidine-1-carboxylate]	1.43	1.47
		COC(=O)NCCC1CCN(c2nccc(-c3ccc4ccccc4c3)n2)CC1 [methyl (2-{1-[4-(2-naphthyl)pyrimidin-2-yl]piperidin-4-yl}ethyl)carbamate]	1.39	0.89
		COC(=O)[C@H](NC(=O)OC(C)(C)C)C1CCN(c2nccc(-c3ccc4ccccc4c3)n2)CC1 [methyl (2R)-[(tert-butoxycarbonyl)amino]{1-[4-(2-naphthyl)pyrimidin-2-yl]piperidin-4-yl}acetate]		0.77
3.200	5.05	COC(=O)[C@H](N)C1CCN(c2nccc(-c3ccc4ccccc4c3)n2)CC1 [methyl (2R)-amino{1-[4-(2-naphthyl)pyrimidin-2-yl]piperidin-4-yl}acetate]	1.68	1.05
		COC(=O)[C@@H](NC(=O)OC(C)(C)C)C1CCN(c2nccc(-c3ccc4ccccc4c3)n2)CC1 [methyl (2S)-[(tert-butoxycarbonyl)amino]{1-[4-(2-naphthyl)pyrimidin-2-yl]piperidin-4-yl}acetate]		0.7
